According to US11793849B2, “Method of Chinese herbal medicine extract used for treating multiple diseases caused by drug resistant bacteria infection” (priority 2016, dated 2023):
Values after ≈ are worked out from the molar mass of the structure shown. Read-outs that look alike come from different tables or passages of the source.

Tests used:
MDRPA [1] = test: Checkerboard assay (combined-use MIC, FIC); assay type: cell-based, Pseudomonas aeruginosa
Protocol: Test methods of the sensibilization effects of the test product to similar antibiotics: it is operated by referring to a checkerboard assay recommended by NCCLS.
The checkerboard assay is performed in a 96-pore sterile culture plate.
Calculation of a Fractional Inhibitory Concentration (FIC): FIC=S20b combined-use MIC/S20b single-use MIC+antibiotic combined-use MIC/antibiotic single-use MIC. By calculating the FIC, the combined antibacterial interaction between the EA and the antibiotic is evaluated, with synergistic effect for FIC≤0.5, additive effect for 0.5<FIC≤1, indifferent effect for 1<FIC≤2 and antagonistic effect for FIC>2. According to a sterile growth pore, the optimum concentration ratio between the EA and the antibiotic is founded out. At last, the effect of the EA to strengthen the efficacy of the antibiotic is evaluated.

MDRPA [2] = test: MIC determination, microdilution broth method;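 further: broth microdilution per NCCLS recommendations, testing Pithecellobium clypearia water or ethanol extracts against multidrug-resistant Pseudomonas aeruginosa, with MIC50 and MIC90 derived statistically from individual MICs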
[3] = 20 MDRPAs, EA = 60% ethanol extract
[4] = 20 MDRPAs, EA = 95% ethanol extract
[5] = MDRPAs P1-P20, single use, EA=P. clypearia 10% ethanol extract
[6] = MDRPAs P1-P20, single use, EA=P. clypearia water extract
[7] = single use, 20 MDRPAs, section of the 10% ethanol extract
[8] = single use, 20 MDRPAs, section of the 60% ethanol extract
[9] = single use, 20 MDRPAs, section of the 95% ethanol extract

SMILES: CC(C)(O/N=C(\C(=O)N[C@@H]1C(=O)N2C(C(=O)[O-])=C(C[n+]3ccccc3)CS[C@H]12)c1csc(N)n1)C(=O)O [CAZ, Ceftazidime]
- combined-use MIC (MDRPA [1]; strain P18, EA (P. clypearia 10% ethanol extract) combined with CAZ): 32 µg/mL
- combined-use MIC (MDRPA [1]; strain P18, EA (P. clypearia water extract) combined with CAZ): 16 µg/mL
- combined-use MIC (MDRPA [1]; strain P19, EA (P. clypearia 10% ethanol extract) combined with CAZ): 2 µg/mL
- combined-use MIC (MDRPA [1]; strain P19, EA (P. clypearia water extract) combined with CAZ): 2 µg/mL
- combined-use MIC (MDRPA [1]; strain P20, EA (P. clypearia 10% ethanol extract) combined with CAZ): 64 µg/mL
- combined-use MIC (MDRPA [1]; strain P20, EA (P. clypearia water extract) combined with CAZ): 64 µg/mL
- MIC50 (MDRPA [2]; [3]): 32 µg/mL (≈ 58.5 µM)
- MIC90 (MDRPA [2]; [3]): 256 µg/mL (≈ 468 µM)
- MIC Range (MDRPA [2]; [3]): 2 to 512 µg/mL
- MIC50 (MDRPA [2]; [4]): 32 µg/mL (≈ 58.5 µM)
- MIC90 (MDRPA [2]; [4]): 256 µg/mL (≈ 468 µM)
- MIC Range (MDRPA [2]; [4]): 2 to 512 µg/mL
- MIC50 (MDRPA [2]; [5]): 32 µg/mL (≈ 58.5 µM)
- MIC90 (MDRPA [2]; [5]): 256 µg/mL (≈ 468 µM)
- MIC Range (MDRPA [2]; [5]): 2 to 512 µg/mL
- MIC50 (MDRPA [2]; [6]): 32 µg/mL (≈ 58.5 µM)
- MIC90 (MDRPA [2]; [6]): 256 µg/mL (≈ 468 µM)
- MIC Range (MDRPA [2]; [6]): 2 to 512 µg/mL
- MIC50 (MDRPA [2]; Pseudomonas aeruginosa): 32 µg/mL (≈ 58.5 µM)
- MIC90 (MDRPA [2]; Pseudomonas aeruginosa): 256 µg/mL (≈ 468 µM)
- MIC (MDRPA [2]; Pseudomonas aeruginosa, read-out: MIC (single use), strain P1, EA=P. clypearia 10% ethanol extract): 32 µg/mL (≈ 58.5 µM)
- MIC (MDRPA [2]; Pseudomonas aeruginosa, read-out: MIC (single use), strain P1, EA=P. clypearia water extract): 32 µg/mL (≈ 58.5 µM)
- MIC (MDRPA [2]; Pseudomonas aeruginosa, read-out: MIC (single use), strain P2, EA=P. clypearia 10% ethanol extract): 64 µg/mL (≈ 117 µM)
- MIC (MDRPA [2]; Pseudomonas aeruginosa, read-out: MIC (single use), strain P2, EA=P. clypearia water extract): 64 µg/mL (≈ 117 µM)
- MIC (MDRPA [2]; Pseudomonas aeruginosa, read-out: MIC (single use), strain P3, EA=P. clypearia 10% ethanol extract): 4 µg/mL (≈ 7.32 µM)
- MIC (MDRPA [2]; Pseudomonas aeruginosa, read-out: MIC (single use), strain P3, EA=P. clypearia water extract): 4 µg/mL (≈ 7.32 µM)
- MIC (MDRPA [2]; Pseudomonas aeruginosa, read-out: MIC (single use), strain P4, EA=P. clypearia 10% ethanol extract): 256 µg/mL (≈ 468 µM)
- MIC (MDRPA [2]; Pseudomonas aeruginosa, read-out: MIC (single use), strain P4, EA=P. clypearia water extract): 256 µg/mL (≈ 468 µM)
- MIC (MDRPA [2]; Pseudomonas aeruginosa, read-out: MIC (single use), strain P5, EA=P. clypearia 10% ethanol extract): 64 µg/mL (≈ 117 µM)
- MIC (MDRPA [2]; Pseudomonas aeruginosa, read-out: MIC (single use), strain P5, EA=P. clypearia water extract): 64 µg/mL (≈ 117 µM)
- MIC (MDRPA [2]; Pseudomonas aeruginosa, read-out: MIC (single use), strain P6, EA=P. clypearia 10% ethanol extract): 512 µg/mL (≈ 937 µM)
- MIC (MDRPA [2]; Pseudomonas aeruginosa, read-out: MIC (single use), strain P6, EA=P. clypearia water extract): 512 µg/mL (≈ 937 µM)
- MIC (MDRPA [2]; Pseudomonas aeruginosa, read-out: MIC (single use), strain P7, EA=P. clypearia 10% ethanol extract): 64 µg/mL (≈ 117 µM)
- MIC (MDRPA [2]; Pseudomonas aeruginosa, read-out: MIC (single use), strain P7, EA=P. clypearia water extract): 64 µg/mL (≈ 117 µM)
- MIC (MDRPA [2]; Pseudomonas aeruginosa, read-out: MIC (single use), strain P8, EA=P. clypearia 10% ethanol extract): 256 µg/mL (≈ 468 µM)
- MIC (MDRPA [2]; Pseudomonas aeruginosa, read-out: MIC (single use), strain P8, EA=P. clypearia water extract): 256 µg/mL (≈ 468 µM)
- MIC (MDRPA [2]; Pseudomonas aeruginosa, read-out: MIC (single use), strain P9, EA=P. clypearia 10% ethanol extract): 8 µg/mL (≈ 14.6 µM)
- MIC (MDRPA [2]; Pseudomonas aeruginosa, read-out: MIC (single use), strain P9, EA=P. clypearia water extract): 8 µg/mL (≈ 14.6 µM)
- MIC (MDRPA [2]; Pseudomonas aeruginosa, read-out: MIC (single use), strain P10, EA=P. clypearia 10% ethanol extract): 4 µg/mL (≈ 7.32 µM)
- MIC (MDRPA [2]; Pseudomonas aeruginosa, read-out: MIC (single use), strain P10, EA=P. clypearia water extract): 4 µg/mL (≈ 7.32 µM)
- MIC (MDRPA [2]; Pseudomonas aeruginosa, read-out: MIC (single use), strain P11, EA=P. clypearia 10% ethanol extract): 2 µg/mL (≈ 3.66 µM)
- MIC (MDRPA [2]; Pseudomonas aeruginosa, read-out: MIC (single use), strain P11, EA=P. clypearia water extract): 2 µg/mL (≈ 3.66 µM)
- MIC (MDRPA [2]; Pseudomonas aeruginosa, read-out: MIC (single use), strain P12, EA=P. clypearia 10% ethanol extract): 64 µg/mL (≈ 117 µM)
- MIC (MDRPA [2]; Pseudomonas aeruginosa, read-out: MIC (single use), strain P12, EA=P. clypearia water extract): 64 µg/mL (≈ 117 µM)
- MIC (MDRPA [2]; Pseudomonas aeruginosa, read-out: MIC (single use), strain P13, EA=P. clypearia 10% ethanol extract): 16 µg/mL (≈ 29.3 µM)
- MIC (MDRPA [2]; Pseudomonas aeruginosa, read-out: MIC (single use), strain P13, EA=P. clypearia water extract): 16 µg/mL (≈ 29.3 µM)
- MIC (MDRPA [2]; Pseudomonas aeruginosa, read-out: MIC (single use), strain P14, EA=P. clypearia 10% ethanol extract): 16 µg/mL (≈ 29.3 µM)
- MIC (MDRPA [2]; Pseudomonas aeruginosa, read-out: MIC (single use), strain P14, EA=P. clypearia water extract): 16 µg/mL (≈ 29.3 µM)
- MIC (MDRPA [2]; Pseudomonas aeruginosa, read-out: MIC (single use), strain P15, EA=P. clypearia 10% ethanol extract): 256 µg/mL (≈ 468 µM)
- MIC (MDRPA [2]; Pseudomonas aeruginosa, read-out: MIC (single use), strain P15, EA=P. clypearia water extract): 256 µg/mL (≈ 468 µM)
- MIC (MDRPA [2]; Pseudomonas aeruginosa, read-out: MIC (single use), strain P16, EA=P. clypearia 10% ethanol extract): 32 µg/mL (≈ 58.5 µM)
- MIC (MDRPA [2]; Pseudomonas aeruginosa, read-out: MIC (single use), strain P16, EA=P. clypearia water extract): 32 µg/mL (≈ 58.5 µM)
- MIC (MDRPA [2]; Pseudomonas aeruginosa, read-out: MIC (single use), strain P17, EA=P. clypearia 10% ethanol extract): 32 µg/mL (≈ 58.5 µM)
- MIC (MDRPA [2]; Pseudomonas aeruginosa, read-out: MIC (single use), strain P17, EA=P. clypearia water extract): 32 µg/mL (≈ 58.5 µM)
- MIC (MDRPA [2]; Pseudomonas aeruginosa, read-out: MIC (single use), strain P18, EA=P. clypearia 10% ethanol extract): 64 µg/mL (≈ 117 µM)
- MIC (MDRPA [2]; Pseudomonas aeruginosa, read-out: MIC (single use), strain P18, EA=P. clypearia water extract): 64 µg/mL (≈ 117 µM)
- MIC (MDRPA [2]; Pseudomonas aeruginosa, read-out: MIC (single use), strain P19, EA=P. clypearia 10% ethanol extract): 4 µg/mL (≈ 7.32 µM)
- MIC (MDRPA [2]; Pseudomonas aeruginosa, read-out: MIC (single use), strain P19, EA=P. clypearia water extract): 4 µg/mL (≈ 7.32 µM)
- MIC (MDRPA [2]; Pseudomonas aeruginosa, read-out: MIC (single use), strain P20, EA=P. clypearia 10% ethanol extract): 256 µg/mL (≈ 468 µM)
- MIC (MDRPA [2]; Pseudomonas aeruginosa, read-out: MIC (single use), strain P20, EA=P. clypearia water extract): 256 µg/mL (≈ 468 µM)
- MIC50 (MDRPA [2]; [7]): 32 µg/mL (≈ 58.5 µM)
- MIC90 (MDRPA [2]; [7]): 256 µg/mL (≈ 468 µM)
- MIC50 (MDRPA [2]; [8]): 32 µg/mL (≈ 58.5 µM)
- MIC90 (MDRPA [2]; [8]): 256 µg/mL (≈ 468 µM)
- MIC50 (MDRPA [2]; [9]): 32 µg/mL (≈ 58.5 µM)
- MIC90 (MDRPA [2]; [9]): 256 µg/mL (≈ 468 µM)
